Measurements reported in patent US20040208782A1, “Composition and process for chemical and thermal disinfection” (priority 2003, published 2004).
Values joined by “and” are separate entries in the source; they are usually repeats but may differ in a detail not shown here. Equal entries are not always repeated.

Columns and labels:
[1] = system: Mycobacterium terrae (ATCC15755); experiment: Mycobacterium terrae quantitative suspension test (Test 2), reduction factors; format: cell-based; conditions: for activity for Mycobacterium terrae (in words): 0.1% by weight; for reduction factor: Example 4, 0.1% by weight
[2] = system: bacteria, fungi and mycobacteria; experiment: Quantitative suspension test, overall spectrum of activity (result statements); format: cell-based; conditions: 0.1% by weight
[3] = Stoppered cylinder foam test (Test 3); format: physicochemical; conditions: 0.1% by weight aqueous solution, room temperature
Protocol: The test is used for qualitative assessment of the foaming behaviour of solutions.
The solution to be tested is introduced, avoiding foaming as far as possible, up to the 30 ml mark in a 100 ml measuring cylinder (graduated). It is advisable to hold the cylinder at an angle and allow the solution to run slowly down the wall of the mixing cylinder. The stopper is then inserted.
If foam has nevertheless formed when introducing the solution, the test is not carried out until the foam has completely disappeared. The stoppered cylinder is shaken vigorously 10×, and the stopclock is started. The total volume of solution and foam is then read off in ml after previously specified times.
Test 3 at Room Temperature

Solubility in water = format: physicochemical

SMILES | activity for Mycobacterium terrae (in words) ([1]; 50° C.) | activity for Mycobacterium terrae (in words) ([1]; room temperature, only at 60 minutes in 30% by weight ethanol solution) | activity (in words) ([1]; 0.1% strength or 0.05% strength aqueous solution, elevated temperature (e.g. 60° C.)) | reduction factor ([1]; 50° C., action for 15′) | reduction factor ([1]; 50° C., action for 30′) | reduction factor ([1]; 50° C., action for 60′) | activity on Mycobacterium terrae (in words) ([1]; above room temperature, alkaline range) | antimicrobial activity (in words) ([2]; 50° C., gram-positive and gram-negative bacteria, yeasts and mycobacteria) | antimicrobial activity (in words) ([2]; low temperature) | foaming behaviour (in words) [3] | solubility in water (Solubility in water)
CCCCC(CC)COCC(O)CO (stereo not shown) [SC 50, 1-(2-Ethylhexyl)glycerol ether] | active | good activity | excellent activity | 4.80 | 4.66 | 5.52 | excellent activity | broad activity | virtually no antimicrobial activity | virtually no foam | 0.18 % by weight
CCCCCCCCOCC(O)CO (stereo not shown) [1-(n-octyl)glycerol ether] | – | – | – | – | – | – | – | – | – | pronounced foaming | < 0.2 % by weight and > 0.1 % by weight
